From ChEMBL document CHEMBL1201862, “PubChem BioAssay data set” (2004) come the findings set out here.

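Method: 48-hour compound exposure of cells in 96-well plates, five concentrations, linear interpolation of endpoints. Abbreviation: GI50, concentration required for 50% inhibition of growth.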 Active and inactive are the calls of the source. Cut-off read from the data, not from the text of the source: active = GI50 up to about 1.1 µM and inactive = higher.

Test systems include UO-31; SK-MEL-2; SK-OV-3; CAKI-1; HCT-15; 786-0; SF-539; A498; MOLT-4; SW-620; SF-268; TK-10; SN12C; COLO 205; SK-MEL-28; NCI-H460; ACHN; NCI/ADR-RES.
Holding throughout (test): DTP human tumour cell line panel, 48 h

By GI50 is commonly meant the concentration at which growth is held to half of that of the control. Regarding `O=C(CC(=O)C(=O)CC(=O)OCc1ccccc1)OCc1ccccc1`, the GI50 in the assay with UO-31 is 27.3 µM (inactive); with SK-MEL-2, > 100 µM (inactive); in the assay on SK-OV-3, > 100 µM (inactive); with CAKI-1 it was > 100 µM (inactive); with HCT-15 it was more than 100 µM; in the assay on 786-0, > 100 µM (inactive). For the same compound, the GI50 in the assay with SF-539 is 53.5 µM (inactive); with A498 it was > 100 µM (inactive); in the assay with MOLT-4 it was 64.3 µM (inactive); in the assay with SW-620, 88.9 µM (inactive); with SF-268, 32.3 µM (inactive); with TK-10, > 100 µM (inactive). The results for the GI50 in the assay with SN12C, in the assay on COLO 205 and in the assay on SK-MEL-28 were 57.1 µM (inactive), > 100 µM (inactive) and 67.6 µM (inactive), respectively.

Consider `CC(Cl)(/C=C/Cl)C(Cl)/C=C/C(Cl)(CCl)CBr` (stereo not drawn), for which the GI50 with UO-31 is 14.5 µM (inactive); in the assay with SK-MEL-2, 3.82 µM (inactive); with SK-OV-3, 17.1 µM (inactive); with CAKI-1, 12.2 µM (inactive); in the assay on NCI-H460 it was 3.15 µM (inactive); in the assay on HCT-15, 0.308 µM. In addition, the GI50 in the assay on ACHN is 5.51 µM (inactive); in the assay on 786-0 it was 2.9 µM (inactive); in the assay with A498, 13.5 µM (inactive); in the assay with MOLT-4, 0.373 µM (active); with SW-620, 2.15 µM (inactive); in the assay with SF-268, 2.09 µM (inactive). The GI50 with TK-10 is 7.45 µM (inactive); with SN12C it was 3.18 µM (inactive); in the assay with COLO 205, 2.01 µM (inactive); in the assay with SK-MEL-28 it was 2.24 µM (inactive).

Turning to `CCCS(=O)(=O)/C(=C(\c1ccc(Br)cc1)S(=O)(=O)CCC)c1ccc(Br)cc1`, the GI50 with UO-31 is > 10 µM (inactive); in the assay on SK-MEL-2, > 10 µM (inactive); with SK-OV-3 it was > 10 µM (inactive); with CAKI-1, > 10 µM (inactive); in the assay on NCI-H460, > 10 µM (inactive); with HCT-15 it was more than 10 µM. In addition, the GI50 in the assay with ACHN, in the assay with 786-0, in the assay with SF-539, with A498, in the assay on MOLT-4 and in the assay on SW-620 was > 10 µM (inactive) throughout. Further, the GI50 in the assay with SF-268, in the assay with TK-10, with SN12C, in the assay on COLO 205 and in the assay on SK-MEL-28 was > 10 µM (inactive) throughout.

Turning to `CCOC(=O)C1=C(C)N(Cc2ccccc2)C(C)=C(C(=O)OCC)C1c1ccccc1O`, the GI50 in the assay on UO-31 was 32.1 µM (inactive); in the assay with SK-MEL-2, 20 µM (inactive); in the assay on SK-OV-3, 47.2 µM (inactive); in the assay on CAKI-1 it was 27.2 µM (inactive); with NCI-H460, 42.3 µM (inactive); in the assay on HCT-15, 30.1 µM. The GI50 with ACHN is 28.1 µM (inactive); with 786-0, 44.6 µM (inactive); with SF-539 it was 27.7 µM (inactive); in the assay on A498, 33.7 µM (inactive); in the assay with MOLT-4, 11.3 µM (inactive); in the assay on SW-620 it was 39.9 µM (inactive). Also, the GI50 with SF-268 was 32.4 µM (inactive); in the assay with TK-10 it was 47.5 µM (inactive); in the assay with SN12C it was 28.4 µM (inactive); with COLO 205, 13 µM (inactive); in the assay on SK-MEL-28, 19.2 µM (inactive).

In the case of `COc1cc(C(=O)C/C(CCC(=O)Nc2ccccc2[N+](=O)[O-])=N\NC(=O)CC#N)ccc1O`, the GI50 in the assay with UO-31 was > 100 µM (inactive); with SK-MEL-2 it was > 100 µM (inactive); with SK-OV-3, > 100 µM (inactive); with CAKI-1, > 100 µM (inactive); in the assay with NCI-H460 it was > 100 µM (inactive); in the assay with HCT-15 it was more than 100 µM. Moreover, the GI50 was > 100 µM (inactive) in the assay with ACHN; > 100 µM (inactive) in the assay on 786-0; > 100 µM (inactive) with SF-539; 40.7 µM (inactive) in the assay with A498; > 100 µM (inactive) in the assay on MOLT-4; > 100 µM (inactive) in the assay on SW-620. Moreover, the GI50 in the assay with SF-268, in the assay on TK-10, in the assay on SN12C, with COLO 205 and in the assay on SK-MEL-28 was > 100 µM (inactive) throughout.

`O=C1CC(C[C@H](O)C2CCCCC2O)CC(=O)N1Cc1ccccc1` (stereo partly drawn): the GI50 in the assay with UO-31, in the assay with SK-MEL-2, in the assay with SK-OV-3, in the assay on CAKI-1, in the assay on NCI-H460 and in the assay on ACHN was > 100 µM (inactive) throughout. Also, the GI50 with 786-0, in the assay on SF-539, in the assay with A498, in the assay with MOLT-4, in the assay with SW-620 and in the assay on SF-268 was > 100 µM (inactive) in each case. The GI50 in the assay on TK-10, in the assay with SN12C, in the assay with COLO 205 and in the assay on SK-MEL-28 was > 100 µM (inactive) in each case.

With `COC(=O)C1(C(C)C)CCc2c(OC)ccc(OC)c2C1=O` (stereo not drawn), the GI50 with UO-31 was > 100 µM (inactive); in the assay with SK-MEL-2, > 100 µM (inactive); in the assay with SK-OV-3 it was > 100 µM (inactive); in the assay on CAKI-1 it was > 100 µM (inactive); with NCI-H460, > 100 µM (inactive); in the assay with HCT-15 it was more than 100 µM. The GI50 was > 100 µM (inactive) in the assay on ACHN; > 100 µM (inactive) in the assay on 786-0; > 100 µM (inactive) in the assay on SF-539; > 100 µM (inactive) in the assay on A498; 74.3 µM (inactive) in the assay with MOLT-4; > 100 µM (inactive) in the assay on SW-620. Further, the GI50 in the assay on SF-268, with TK-10, with SN12C, with COLO 205 and with SK-MEL-28 was > 100 µM (inactive) throughout.

`c1ccc(C2CC(c3ccc4ccccc4c3)=Nc3ccccc3S2)cc1` (stereo not drawn): the GI50 was 12.5 µM (inactive) with UO-31; 18.1 µM (inactive) in the assay on SK-MEL-2; 38.5 µM (inactive) in the assay with SK-OV-3; > 10 µM (inactive) in the assay with CAKI-1; 15.7 µM (inactive) with NCI-H460; 16.7 µM (inactive) with ACHN. Further, the GI50 is 16.6 µM (inactive) with 786-0; 16.7 µM (inactive) with SF-539; 17.3 µM (inactive) in the assay on A498; 30.4 µM (inactive) in the assay on MOLT-4; 18.8 µM (inactive) in the assay with SW-620; 17 µM (inactive) with SF-268. Besides, the GI50 in the assay with TK-10 was 22.3 µM (inactive); in the assay on SN12C, 16.7 µM (inactive); with SK-MEL-28, 18.3 µM (inactive).

`CN(C)CCNC(=O)c1cccc2nc3ccc4ccccc4c3nc12`: the GI50 in the assay with UO-31 was 0.0685 µM (active); in the assay with SK-MEL-2, 0.177 µM (active); in the assay with SK-OV-3, 0.144 µM (active); in the assay with CAKI-1 it was 0.0518 µM (active); in the assay with NCI-H460, 0.0266 µM (active); in the assay with HCT-15 it was 0.0598 µM. Also, the GI50 was 0.0658 µM (active) with ACHN; 0.125 µM (active) with 786-0; 0.0652 µM (active) with SF-539; 0.0832 µM (active) with A498; 0.0324 µM (active) in the assay with MOLT-4; 0.0181 µM (active) in the assay with SW-620. In addition, the GI50 in the assay on SF-268 is 0.0592 µM (active); with TK-10, 0.139 µM (active); in the assay with SN12C, 0.0478 µM (active); in the assay on COLO 205, 0.0434 µM (active); in the assay with SK-MEL-28, 0.29 µM (active).

As to `CC(=O)O/C(C)=C\C(=O)O/N=C(\N)c1ccc(C)cc1`, the GI50 is 61.1 µM (inactive) in the assay on UO-31; 28.6 µM (inactive) in the assay on SK-MEL-2; > 100 µM (inactive) with SK-OV-3; > 100 µM (inactive) in the assay with CAKI-1; 29.6 µM (inactive) with NCI-H460; 33 µM (inactive) in the assay on ACHN. Further, the GI50 is 52 µM (inactive) in the assay with 786-0; 20.6 µM (inactive) with SF-539; 62.7 µM (inactive) with A498; 23.1 µM (inactive) with MOLT-4; 39.4 µM (inactive) in the assay on SW-620; 29.8 µM (inactive) in the assay with SF-268. The GI50 with TK-10 was 63.8 µM (inactive); in the assay on SN12C, 22 µM (inactive); in the assay with COLO 205 it was 27.9 µM (inactive); in the assay on SK-MEL-28, 19.6 µM (inactive).

On to `CSc1ccc2c(cc1=O)C(NC(=O)c1cc(O)c(OC(=O)O)c(O)c1)CCc1cc(O)c(O)c(O)c1-2` (stereo not drawn), for which the GI50 is 15.3 µM (inactive) in the assay on UO-31; > 89.9 µM (inactive) with SK-MEL-2; > 89.9 µM (inactive) in the assay on SK-OV-3; 19.3 µM (inactive) in the assay with CAKI-1; 20.7 µM (inactive) in the assay on NCI-H460; 16.1 µM in the assay on HCT-15. In addition, the GI50 was 33.8 µM (inactive) in the assay with ACHN; 34 µM (inactive) in the assay with 786-0; 26.5 µM (inactive) in the assay on SF-539; 36.1 µM (inactive) in the assay with A498; 16.7 µM (inactive) in the assay with MOLT-4; 14 µM (inactive) in the assay with SW-620. Also, the GI50 in the assay on SF-268 is 19.8 µM (inactive); in the assay on TK-10, > 89.9 µM (inactive); in the assay with SN12C, 13.3 µM (inactive); in the assay with COLO 205 it was 30.3 µM (inactive); in the assay on SK-MEL-28 it was 24.4 µM (inactive).

Take `COc1cc(C2c3cc4c(cc3[C@@H](Nc3ccc5c(c3)OCCO5)C3COC(=O)[C@H]23)OCO4)cc(OC)c1O` (stereo partly drawn): the GI50 in the assay with UO-31 was 0.499 µM (active); with SK-MEL-2, 2.19 µM (inactive); in the assay on SK-OV-3 it was 1.58 µM (inactive); in the assay on CAKI-1, 0.113 µM (active); in the assay on NCI-H460, 0.0156 µM (active); in the assay on HCT-15, 1.25 µM. The GI50 was 0.585 µM (active) in the assay with ACHN; 0.199 µM (active) in the assay with 786-0; 1.07 µM (active) in the assay with NCI/ADR-RES; 0.435 µM (active) in the assay on SF-539; 0.19 µM (active) in the assay on A498; 0.035 µM (active) with MOLT-4. In addition, the GI50 in the assay with SW-620 is 0.586 µM (active); in the assay on SF-268, 0.771 µM (active); in the assay with TK-10 it was 1.52 µM (inactive); in the assay on SN12C it was 0.627 µM (active); in the assay with COLO 205, 0.918 µM (active); in the assay on SK-MEL-28, 2.05 µM (inactive).
